Measured values reported in PubChem BioAssay AID248 (DTP/NCI, 2004).
Toxic doses and inconclusive results are not listed. No stated cut-off is given here; in the data, active means T/C of 150% or more; inactive means T/C below 125%.

System: L1210 leukemia ip in BDF1 mice, survival T/C
Assay: NCI In Vivo Anticancer Drug Screen. Data for tumor model L1210 Leukemia (intraperitoneal) in B6D2F1 (BDF1) mice
Conditions: endpoint: mean survival time, higher = longer survival
Summary of the method: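 Transplantable tumor model; survival measured in treated vs vehicle control mice. Value = treated/control.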

[1] = dose: 100.0 mg/kg/injection, schedule: Q04DX003 (ip), vehicle: Klucel (hydroxypropylcellulose) (HPC)
[2] = dose: 200.0 mg/kg/injection, schedule: Q04DX003 (ip), vehicle: Klucel (hydroxypropylcellulose) (HPC)
[3] = dose: 400.0 mg/kg/injection, schedule: Q04DX003 (ip), vehicle: Klucel (hydroxypropylcellulose) (HPC)

Measured: T/C

Cn1c(=O)c2[nH]c(CC3CCCC3)nc2n(C)c1=O
inactive: dose: 50.0 mg/kg/injection, schedule: Q01DX001 (ip), vehicle: saline 104 % of control | dose: 100.0 mg/kg/injection, schedule: Q01DX001 (ip), vehicle: saline 104 % of control | dose: 200.0 mg/kg/injection, schedule: Q01DX001 (ip), vehicle: saline 101 % of control | dose: 400.0 mg/kg/injection, schedule: Q01DX001 (ip), vehicle: saline 95 % of control

Cc1ncc(-c2ccc([N+](=O)[O-])cc2)o1
inactive: dose: 50.0 mg/kg/injection, schedule: Q04DX003 (ip), vehicle: Klucel (hydroxypropylcellulose) (HPC) 94 % of control | [1] 102 % of control | [2] 94 % of control

CCC1CC(O)c2c(O)c3c(c(O)c2C1O)C(=O)c1cccc(O)c1C3=O (stereo not given) (tested in a mixture with another compound)
inactive: dose: 0.25 mg/kg/injection, schedule: Q01DX015 (ip), vehicle: carboxymethylcellulose (CMC) 101 % of control | dose: 0.5 mg/kg/injection, schedule: Q01DX015 (ip), vehicle: carboxymethylcellulose (CMC) 101 % of control | dose: 3.12 mg/kg/injection, schedule: Q01DX001 (ip), vehicle: carboxymethylcellulose (CMC) 93 % of control

Nc1ccn(C2OC(COP(=O)(O)Oc3ccccc3)C(O)C2O)c(=O)n1 (stereo not given)
inactive: dose: 75.0 mg/kg/injection, schedule: Q01DX001 (ip), vehicle: saline 109 % of control | dose: 150.0 mg/kg/injection, schedule: Q01DX001 (ip), vehicle: saline 113 % of control

COc1cc2ccc(CC3NCCc4cc5c(cc43)OCO5)cc2cc1OC (stereo not given)
inactive: dose: 100.0 mg/kg/injection, schedule: Q01DX009 (ip), vehicle: saline sonified 93 % of control | dose: 100.0 mg/kg/injection, schedule: Q04DX003 (ip), vehicle: saline sonified 88 % of control | dose: 200.0 mg/kg/injection, schedule: Q01DX009 (ip), vehicle: saline sonified 98 % of control | dose: 200.0 mg/kg/injection, schedule: Q04DX003 (ip), vehicle: saline sonified 88 % of control | dose: 400.0 mg/kg/injection, schedule: Q01DX009 (ip), vehicle: saline sonified 93 % of control | dose: 400.0 mg/kg/injection, schedule: Q04DX003 (ip), vehicle: saline sonified 95 % of control

O=[As](O)(O)c1ccc(OCCO)cc1
inactive: dose: 100.0 mg/kg/injection, schedule: Q01DX009 (ip), vehicle: saline 96 % of control | dose: 200.0 mg/kg/injection, schedule: Q01DX009 (ip), vehicle: saline 96 % of control

C=CC(=O)N(CCN1CCOCC1)C(C)C
inactive: dose: 100.0 mg/kg/injection, schedule: Q04DX002 (ip), vehicle: saline 94 % of control | dose: 200.0 mg/kg/injection, schedule: Q04DX002 (ip), vehicle: saline 97 % of control | dose: 400.0 mg/kg/injection, schedule: Q04DX002 (ip), vehicle: saline 94 % of control

O=[N+]([O-])c1cccc(S(=O)(=O)NNc2cc(C(F)(F)F)ccc2Cl)c1
inactive: dose: 100.0 mg/kg/injection, schedule: Q01DX001 (ip), vehicle: Klucel (hydroxypropylcellulose) (HPC) 93 % of control | [1] 92 % of control | dose: 200.0 mg/kg/injection, schedule: Q01DX001 (ip), vehicle: Klucel (hydroxypropylcellulose) (HPC) 94 % of control | [2] 87 % of control | dose: 400.0 mg/kg/injection, schedule: Q01DX001 (ip), vehicle: Klucel (hydroxypropylcellulose) (HPC) 98 % of control | [3] 100 % of control

CC(C)(C)CC(C)(C)c1ccc(OCCOc2ccc(NS(=O)(=O)c3ccc([N+](=O)[O-])cc3)cc2)cc1
inactive: [1] 91 % of control | [2] 100 % of control | [3] 91 % of control

Clc1ccc(Cl)c(OCC2=NCCN2)c1
inactive: dose: 20.0 mg/kg/injection, schedule: Q04DX003 (ip), vehicle: Klucel (hydroxypropylcellulose) (HPC) 102 % of control | dose: 40.0 mg/kg/injection, schedule: Q04DX003 (ip), vehicle: Klucel (hydroxypropylcellulose) (HPC) 101 % of control

CCCCCCCCCCCCCCCC(C1CCCC1)C1CCCC1
inactive: dose: 75.0 mg/kg/injection, schedule: Q01DX001 (ip), vehicle: saline with Tween-80 99 % of control | dose: 150.0 mg/kg/injection, schedule: Q01DX001 (ip), vehicle: saline with Tween-80 97 % of control | dose: 300.0 mg/kg/injection, schedule: Q01DX001 (ip), vehicle: saline with Tween-80 101 % of control

O=C(O)CCc1ccccc1-c1ccccc1
inactive: dose: 50.0 mg/kg/injection, schedule: Q04DX002 (ip), vehicle: saline with Tween-80 96 % of control | dose: 100.0 mg/kg/injection, schedule: Q04DX002 (ip), vehicle: saline with Tween-80 101 % of control | dose: 200.0 mg/kg/injection, schedule: Q04DX002 (ip), vehicle: saline with Tween-80 96 % of control | dose: 400.0 mg/kg/injection, schedule: Q04DX002 (ip), vehicle: saline with Tween-80 107 % of control

O=C(CCCl)N1CCN(C(=O)CCCl)c2ccccc21
inactive: dose: 100.0 mg/kg/injection, schedule: Q01DX001 (ip), vehicle: carboxymethylcellulose (CMC) 103 % of control | dose: 200.0 mg/kg/injection, schedule: Q01DX001 (ip), vehicle: carboxymethylcellulose (CMC) 96 % of control | dose: 400.0 mg/kg/injection, schedule: Q01DX001 (ip), vehicle: carboxymethylcellulose (CMC) 96 % of control

Cc1nc(N)[nH]c(=O)c1CCCN(c1ccccc1)S(=O)(=O)c1ccc([N+](=O)[O-])cc1
inactive: dose: 6.25 mg/kg/injection, schedule: Q01DX001 (ip), vehicle: saline with Tween-80 104 % of control | dose: 12.5 mg/kg/injection, schedule: Q01DX001 (ip), vehicle: saline with Tween-80 100 % of control | dose: 25.0 mg/kg/injection, schedule: Q01DX001 (ip), vehicle: saline with Tween-80 98 % of control

O=C(CCl)Nc1ncc([N+](=O)[O-])s1
inactive: dose: 12.5 mg/kg/injection, schedule: Q04DX003 (ip), vehicle: saline with Tween-80 94 % of control | dose: 25.0 mg/kg/injection, schedule: Q04DX003 (ip), vehicle: saline with Tween-80 91 % of control | dose: 50.0 mg/kg/injection, schedule: Q04DX003 (ip), vehicle: saline with Tween-80 87 % of control
